# Paper PMC6213020, “Identification of a Novel PPAR-γ Agonist through a Scaffold Tuning Approach” (International Journal of Molecular Sciences, 2018)
# Columns and labels:
# PPAR-δ = biological target: T1, PPAR-δ (Homo sapiens, UniProt Q03181); assay: cell-based PPAR transactivation (luciferase) assay, PPAR-δ; details: compounds 10 µM; relative to maximum activation with GW0742 (10 μM); PPAR-Luc in HEK293t cells; read-out: % max PPAR-δ
# T1 construct: host or cells: HEK293t
# T1 sequence (Q03181 1-441): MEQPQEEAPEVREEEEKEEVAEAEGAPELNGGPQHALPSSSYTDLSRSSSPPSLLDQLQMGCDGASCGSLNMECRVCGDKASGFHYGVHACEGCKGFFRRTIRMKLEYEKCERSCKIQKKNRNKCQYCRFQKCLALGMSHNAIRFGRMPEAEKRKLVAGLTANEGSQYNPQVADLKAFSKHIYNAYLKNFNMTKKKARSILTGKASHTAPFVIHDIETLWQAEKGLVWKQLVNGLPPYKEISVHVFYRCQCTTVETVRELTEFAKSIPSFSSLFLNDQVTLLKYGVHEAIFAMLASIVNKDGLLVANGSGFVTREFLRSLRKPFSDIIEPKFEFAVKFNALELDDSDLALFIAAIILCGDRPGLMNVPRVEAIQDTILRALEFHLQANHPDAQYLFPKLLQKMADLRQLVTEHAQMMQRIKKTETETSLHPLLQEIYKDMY
# Method: (§1) The PPAR activities of the synthesized dichloroanilide-linked indole analogs were assessed using a standard cell-based transactivation assay in CV-1 cells. GW7647 [42], pioglitazone, and GW0742 [43] were used as positive controls for PPAR-α, -γ, and -δ, respectively. These three positive controls presented the maximum activation for each PPAR subtype. The activity of the compounds was presented as the activation percentage (%) relative to the maximum values of the positive controls at the indicated concentrations.
# (§2) Transient transfection and luciferase assay was carried out. CV-1 cells were seeded in 48-well plates at a density of 1.5 × 10^5 cells/well in Dulbecco’s modified Eagle’s medium (DMEM) with containing 10% fetal bovine serum (FBS). The cells were transiently transfected with plasmid mixtures containing PPAR-α/γ expression vector and tk-PPRE-luciferase (Luc) vector for 6 h and then treated with the samples for 24 h. HEK293t cells were seeded in a 60-mm dish at a density of 1.5 × 10^6 cells/dish. After transfection with the plasmid mixtures containing PPAR-δ expression vector and Luc vector for 6 h, the cells were transferred to a 96-well plate and treated with the samples. To normalize the transfection efficiency, a β-galactosidase plasmid was cotransfected. The luciferase activity in the cell lysates was measured using a luciferase assay system (Promega Corp., Madison, WI, USA), and the β-galactosidase activity was determined by measuring the absorbance at 410 nm using an ELISA plate reader. The data were expressed as the relative luciferase activity divided by the β-galactosidase activity. All constructs were kindly gifted by Dr. Ronald M. Evans at The Salk Institute (La Jolla, CA, USA).
# PPAR-γ = biological target: T2, PPAR-γ (Homo sapiens, UniProt P37231); assay: cell-based PPAR transactivation (luciferase) assay, PPAR-γ; details: for activation at 10 µM: 24 h, compounds 10 µM, relative to maximum activation with pioglitazone (10 µM), PPAR-Luc in CV-1 cells, read-out: % max PPAR-γ; for agonistic activity to PPARs, in words: transactivation assay, all PPAR subtypes
# T2 construct: host or cells: CV-1
# T2 sequence (P37231 1-505): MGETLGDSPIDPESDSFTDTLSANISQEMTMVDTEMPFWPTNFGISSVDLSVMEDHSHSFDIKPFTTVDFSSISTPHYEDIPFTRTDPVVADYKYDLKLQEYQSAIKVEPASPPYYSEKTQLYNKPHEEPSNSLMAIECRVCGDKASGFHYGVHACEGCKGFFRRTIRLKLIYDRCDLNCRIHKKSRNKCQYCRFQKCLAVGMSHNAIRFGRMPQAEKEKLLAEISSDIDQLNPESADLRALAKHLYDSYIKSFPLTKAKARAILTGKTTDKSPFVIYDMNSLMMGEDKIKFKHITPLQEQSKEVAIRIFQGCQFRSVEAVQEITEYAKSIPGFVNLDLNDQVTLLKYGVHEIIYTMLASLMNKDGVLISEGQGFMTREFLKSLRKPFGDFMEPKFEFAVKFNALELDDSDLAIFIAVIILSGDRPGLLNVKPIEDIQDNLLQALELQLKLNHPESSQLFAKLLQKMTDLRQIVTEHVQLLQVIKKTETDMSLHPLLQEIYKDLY
# Method: as §1, §2
# PPAR-α = biological target: T3, PPAR-α (Homo sapiens, UniProt Q07869); assay: cell-based PPAR transactivation (luciferase) assay, PPAR-α; details: 24 h; compounds 10 µM; relative to maximum activation with GW7647 (10 µM); PPAR-Luc in CV-1 cells; read-out: % max PPAR-α
# T3 construct: host or cells: CV-1
# T3 sequence (Q07869 1-468): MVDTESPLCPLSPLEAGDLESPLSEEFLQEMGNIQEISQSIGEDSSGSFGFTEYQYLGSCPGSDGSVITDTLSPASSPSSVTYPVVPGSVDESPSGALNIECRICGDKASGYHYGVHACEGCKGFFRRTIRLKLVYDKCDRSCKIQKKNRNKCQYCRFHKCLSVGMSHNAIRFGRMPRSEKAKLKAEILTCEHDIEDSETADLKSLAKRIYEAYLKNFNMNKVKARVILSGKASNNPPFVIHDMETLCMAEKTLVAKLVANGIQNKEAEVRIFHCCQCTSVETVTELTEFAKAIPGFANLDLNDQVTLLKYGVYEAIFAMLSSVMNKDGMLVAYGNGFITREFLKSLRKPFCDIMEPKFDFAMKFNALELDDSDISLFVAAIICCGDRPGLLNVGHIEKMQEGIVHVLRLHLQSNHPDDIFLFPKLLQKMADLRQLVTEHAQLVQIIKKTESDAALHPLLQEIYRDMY
# Method: as §1, §2
# db/db mice = test system: db/db mice; set-up: method as in PMID 21482466, PMID 23265886, PMID 25982078; details: cited from earlier work
SMILES,activation at 10 µM (PPAR-δ) [%],activation at 10 µM (PPAR-γ) [%],activation at 10 µM (PPAR-α) [%],accumulation of lipids and size of the adipocytes (db/db mice),blood glucose level (db/db mice),glycated hemoglobin (HbA1c) level (db/db mice),insulin level (db/db mice),weight gain (db/db mice),"agonistic activity to PPARs, in words (PPAR-γ)"
"O=C(O)Cc1cn(Cc2ccccc2)c2ccc(OCC(=O)Nc3ccc(Cl)cc3Cl)cc12 [Compound 7, 2-(1-Benzyl-5-(2-((2,4-dichlorophenyl)amino)-2-oxoethoxy)-1H-indol-3-yl)acetic acid]",44.4 ± 0.77,31.2 ± 0.38,21.41 ± 0.21,–,–,–,–,–,–
O=C(O)Cc1cn(Cc2ccccc2)c2ccc(OCCCOc3cccc(OCc4ccc(Cl)cc4)c3)cc12 [Compound 2],–,–,–,reduced,lowered,lowered,lowered,without causing weight gain,–
"O=C(O)Cc1c[nH]c2ccc(OCC(=O)Nc3ccc(Cl)cc3Cl)cc12 [Compound 5, 2-(5-(2-((2,4-Dichlorophenyl)amino)-2-oxoethoxy)-1H-indol-3-yl)acetic acid]",11.8 ± 0.35,5.6 ± 0.14,-38.13 ± 0.06,–,–,–,–,–,minimum agonistic activities
"O=C(O)Cc1cn(Cc2ccccc2)c2cc(OCC(=O)Nc3ccc(Cl)cc3Cl)ccc12 [Compound 8, 2-(1-Benzyl-6-(2-((2,4-dichlorophenyl)amino)-2-oxoethoxy)-1H-indol-3-yl)acetic acid]",65.4 ± 0.7,71.9 ± 0.91,31.68 ± 0.22,–,–,–,–,–,–
"CC(C)=CCc1cn(Cc2ccccc2C(=O)O)c2ccc(OCC(=O)Nc3ccc(Cl)cc3Cl)cc12 [Compound 20, 2-((5-(2-((2,4-Dichlorophenyl)amino)-2-oxoethoxy)-3-(3-methylbut-2-en-1-yl)-1H-indol-1-yl)methyl)benzoic acid]",8.92 ± 0.48,5.1 ± 0.2,-5.93 ± 0.14,–,–,–,–,–,–
"O=C(COc1ccc2c(Cc3ccccc3)cn(Cc3ccccc3C(=O)O)c2c1)Nc1ccc(Cl)cc1Cl [Compound 19, 2-((3-Benzyl-6-(2-((2,4-dichlorophenyl)amino)-2-oxoethoxy)-1H-indol-1-yl)methyl)benzoic acid]",19.4 ± 0.54,19.03 ± 0.13,7.25 ± 0.12,–,–,–,–,–,–
"O=C(COc1ccc2ccn(Cc3ccc(C(=O)O)cc3)c2c1)Nc1ccc(Cl)cc1Cl [Compound 17, 4-((6-(2-((2,4-Dichlorophenyl)amino)-2-oxoethoxy)-1H-indol-1-yl)methyl)benzoic acid]",4.87 ± 0.24,-0.84 ± 0.16,-14.4 ± 0.16,–,–,–,–,–,–
"O=C(O)Cc1c[nH]c2cc(OCC(=O)Nc3ccc(Cl)cc3Cl)ccc12 [Compound 6, 2-(6-(2-((2,4-Dichlorophenyl)amino)-2-oxoethoxy)-1H-indol-3-yl)acetic acid]",8.27 ± 0.33,8.66 ± 0.23,1.12 ± 0.24,–,–,–,–,–,minimum agonistic activities
"O=C(COc1ccc2c(ccn2Cc2cccc(C(=O)O)c2)c1)Nc1ccc(Cl)cc1Cl [Compound 14, 3-((5-(2-((2,4-Dichlorophenyl)amino)-2-oxoethoxy)-1H-indol-1-yl)methyl)benzoic acid]",23.9 ± 0.51,42 ± 0.52,10.33 ± 0.07,–,–,–,–,–,–
"O=C(COc1ccc2c(ccn2Cc2ccc(C(=O)O)cc2)c1)Nc1ccc(Cl)cc1Cl [Compound 16, 4-((5-(2-((2,4-Dichlorophenyl)amino)-2-oxoethoxy)-1H-indol-1-yl)methyl)benzoic acid]",-1.07 ± 0.14,0.29 ± 0.06,-19.98 ± 0.08,–,–,–,–,–,–
"CC(C)=CCc1cn(Cc2ccccc2C(=O)O)c2cc(OCC(=O)Nc3ccc(Cl)cc3Cl)ccc12 [Compound 21, 2-((6-(2-((2,4-Dichlorophenyl)amino)-2-oxoethoxy)-3-(3-methylbut-2-en-1-yl)-1H-indol-1-yl)methyl)benzoic acid]",22.2 ± 0.59,9.55 ± 0.32,-2.3 ± 0.19,–,–,–,–,–,–
